Read-outs that look alike come from different tables or passages of the source.
How the values were obtained:
human ρ1 GABAC receptors = human ρ1 GABAC receptors (Homo sapiens, UniProt P24046); type: cell-based; details: for Mode of antagonism at ρ1 GABAC receptors: GABA dose response curve in presence of 40 μM cis or 30 μM trans; for Effect when applied alone at ρ1 GABAC receptors: applied alone (cis 40 μM, trans 30 μM)
[1] = system: native GABAC receptor on rat retinal bipolar cells; test: Whole-cell patch-clamp on dissociated rat retinal bipolar cells; type: cell-based; details: GABA 10 μM, bicuculline 100 μM
human ρ2 GABAC receptors = human ρ2 GABAC receptors (Homo sapiens, UniProt P28476); type: cell-based
male Wistar rats = test: Morris Water Maze learning and memory in rats; type: in vivo, rat; details: for Behavior in pool, D1 / Behavior in pool, D2: grade 0-8; for Number to reach platform, D1 / Number to reach platform, D2: n=10
[2] = system: human α1β2γ2L GABAA receptors; test: Two-electrode voltage clamp on recombinant GABAA; type: cell-based; details: for Percentage inhibition of GABA response at GABAA(α1β2γ2L): compound 1 mM against an EC50 concentration of GABA (60 μM), n=3; for Response when applied alone (agonist effect) at GABAA(α1β2γ2L): compound 1 mM alone
[3] = system: lens induced myopia in chick; test: Lens induced myopia; type: in vivo; details: for Axial expansion (interocular difference) / Myopia (refractive error, interocular difference): 350 nmol intravitreal daily, −15 D lens, 4.5 days, mean ± SD; for Axial expansion reduction / Myopia reduction: 350 nmol intravitreal, versus water injected control
male QS mice = test: General behavioral and acute toxicity tests in mice; type: in vivo; details: 1, 10 and 100 mg/kg ip; 0 min to 1 week after injection
[4] = system: human GABAB(1b,2) receptors; test: Two-electrode voltage clamp on recombinant GABAB; type: cell-based; details: for Percentage inhibition of GABA response at GABAB(1b,2): compound 1 mM against an EC50 concentration of GABA (3 μM), GIRK1 and GIRK4, n=3; for Response when applied alone (agonist effect) at GABAB(1b,2): compound 1 mM alone
[5] = system: lens induced myopia in chick; details: negative lens, ref Schmid et al., 2004; cited from earlier work
ρ1 GABAC receptors = details: ref Chebib et al., 2007, cited from earlier work; for Potency at GABAC relative to GABAA receptors / Potency at GABAC relative to GABAB receptors: ρ1 GABAC
[6] = 10 mg/kg ip on D1, Trial 1, Day 1
[7] = 10 mg/kg ip on D1, Trial 1, Day 2
[8] = 30 mg/kg ip on D1, Trial 1, Day 1
[9] = 30 mg/kg ip on D1, Trial 1, Day 2
[10] = 100 mg/kg ip on D1, Trial 1, Day 1
[11] = 100 mg/kg ip on D1, Trial 1, Day 2
[12] = compound 30 μM co-applied with GABA (1 μM)

Chain of human ρ1 GABAC receptors (P24046 22-479): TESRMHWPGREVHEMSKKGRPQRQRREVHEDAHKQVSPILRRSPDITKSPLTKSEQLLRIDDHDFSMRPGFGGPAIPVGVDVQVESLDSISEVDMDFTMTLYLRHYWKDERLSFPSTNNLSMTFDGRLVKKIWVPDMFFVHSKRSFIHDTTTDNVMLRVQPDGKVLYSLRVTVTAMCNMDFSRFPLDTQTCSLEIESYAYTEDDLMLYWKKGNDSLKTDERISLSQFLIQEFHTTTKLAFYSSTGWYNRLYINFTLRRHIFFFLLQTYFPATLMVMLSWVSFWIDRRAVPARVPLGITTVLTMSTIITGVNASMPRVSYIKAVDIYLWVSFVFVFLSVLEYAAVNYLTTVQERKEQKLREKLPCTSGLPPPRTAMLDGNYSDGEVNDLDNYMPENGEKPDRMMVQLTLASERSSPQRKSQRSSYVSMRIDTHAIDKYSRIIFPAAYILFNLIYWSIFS
Chain of human ρ2 GABAC receptors (P28476 21-465): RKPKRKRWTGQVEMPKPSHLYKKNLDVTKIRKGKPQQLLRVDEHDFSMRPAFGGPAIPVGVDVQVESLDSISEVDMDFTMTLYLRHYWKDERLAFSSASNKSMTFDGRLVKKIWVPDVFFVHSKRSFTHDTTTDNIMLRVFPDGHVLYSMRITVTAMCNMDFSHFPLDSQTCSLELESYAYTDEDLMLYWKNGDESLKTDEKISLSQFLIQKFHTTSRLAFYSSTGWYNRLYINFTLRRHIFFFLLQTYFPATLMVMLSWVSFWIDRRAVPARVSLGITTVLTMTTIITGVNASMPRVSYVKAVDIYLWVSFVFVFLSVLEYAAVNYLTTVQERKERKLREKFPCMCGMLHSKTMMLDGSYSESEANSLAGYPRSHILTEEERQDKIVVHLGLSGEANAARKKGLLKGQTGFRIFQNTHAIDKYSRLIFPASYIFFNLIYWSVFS

CCCCP(=O)(O)[C@H]1CC[C@@H](N)C1 (relative stereo) [cis-3-ACPBPA, cis-(3-aminocyclopentanyl)butylphosphinic acid]
Mode of antagonism at ρ1 GABAC receptors (human ρ1 GABAC receptors): competitive antagonists | Potency at GABAC relative to GABAA or GABAB receptors (human ρ1 GABAC receptors; GABAC versus GABAA or GABAB): over 100 times | Effect when applied alone at ρ1 GABAC receptors (human ρ1 GABAC receptors): no effect alone | Inhibition of the GABA response at ρ1 GABAC receptors (human ρ1 GABAC receptors; compound 40 μM co-applied with GABA (1 μM)): completely inhibited | IC50 (human ρ1 GABAC receptors; read-out: GABAC ρ1 IC50, GABA 1 μM, n=4): 5.06 µM | Potency relative to the trans analog at the ρ1 and ρ2 GABAC receptors (human ρ1 GABAC receptors; ρ1 and ρ2 GABAC receptors): approximately 15 times | Hill coefficient [1]: 0.97 | IC50 ([1]; read-out: IC50 at native GABAC receptor, n=6): 47 ± 4.5 µM | IC50 (human ρ2 GABAC receptors; read-out: GABAC ρ2 IC50, GABA 1 μM, n=4): 11.1 µM | Median time to reach platform, D1 (male Wistar rats; [6]): 59 s | Behavior in pool, D1 (male Wistar rats; [6]): 3 | Number to reach platform, D1 (male Wistar rats; [6]): 5 | Median time to reach platform, D2 (male Wistar rats; [7]): 71 s | Behavior in pool, D2 (male Wistar rats; [7]): 4 | Number to reach platform, D2 (male Wistar rats; [7]): 8 | Median time to reach platform, D1 (male Wistar rats; [8]): 31 s | Behavior in pool, D1 (male Wistar rats; [8]): 4 ^*, 4 | Number to reach platform, D1 (male Wistar rats; [8]): 7 | Median time to reach platform, D2 (male Wistar rats; [9]): 35 s | Behavior in pool, D2 (male Wistar rats; [9]): 4 ^*, 4 | Number to reach platform, D2 (male Wistar rats; [9]): 9 | Median time to reach platform, D1 (male Wistar rats; [10]): 85 s | Behavior in pool, D1 (male Wistar rats; [10]): 3 | Number to reach platform, D1 (male Wistar rats; [10]): 5 | Median time to reach platform, D2 (male Wistar rats; [11]): 71 s | Behavior in pool, D2 (male Wistar rats; [11]): 4 | Number to reach platform, D2 (male Wistar rats; [11]): 6 | Percentage inhibition of GABA response at GABAA(α1β2γ2L) [2]: 33±3% | Response when applied alone (agonist effect) at GABAA(α1β2γ2L) [2]: no response alone | Axial expansion (interocular difference) [3]: 0.17±0.17 mm | Myopia (refractive error, interocular difference) [3]: −2.3±2.6 D | Axial expansion reduction [3]: 70% | Myopia reduction [3]: 80% | Dose required to inhibit a similar degree of lens-induced myopia (>80%) ([3]; intravitreal, chick): 35 nmol | Overt acute toxicity (male QS mice): No overt acute toxicity | Percentage inhibition of GABA response at GABAB(1b,2) [4]: 27±3% | Response when applied alone (agonist effect) at GABAB(1b,2) [4]: No response

CP(=O)(O)C1=CCNCC1 [TPMPA, (1,2,5,6-tetrahydropyridin-4-yl)methylphosphinic acid, reference compound]
Inhibition of the GABA response at ρ1 GABAC receptors (human ρ1 GABAC receptors; [12]): completely inhibited | Dose inhibiting a similar degree of lens-induced myopia [5]: 70 nmol

CCCCP(=O)(O)C1CCC(N)C1 (stereo not drawn) [trans-3-ACPBPA, trans-(3-aminocyclopentanyl)butylphosphinic acid]
IC50 (human ρ1 GABAC receptors): 72.6 µM | Mode of antagonism at ρ1 GABAC receptors (human ρ1 GABAC receptors): competitive antagonists | Effect when applied alone at ρ1 GABAC receptors (human ρ1 GABAC receptors): no effect alone | Inhibition of the GABA response at ρ1 GABAC receptors (human ρ1 GABAC receptors; [12]): 70% | IC50 (human ρ2 GABAC receptors): 190 µM | Median time to reach platform, D1 (male Wistar rats; [6]): 77 s | Behavior in pool, D1 (male Wistar rats; [6]): 3 | Number to reach platform, D1 (male Wistar rats; [6]): 5 | Median time to reach platform, D2 (male Wistar rats; [7]): 44 s | Behavior in pool, D2 (male Wistar rats; [7]): 4 | Number to reach platform, D2 (male Wistar rats; [7]): 8 | Median time to reach platform, D1 (male Wistar rats; [8]): 82 s | Behavior in pool, D1 (male Wistar rats; [8]): 3 | Number to reach platform, D1 (male Wistar rats; [8]): 5 | Median time to reach platform, D2 (male Wistar rats; [9]): 47 s | Behavior in pool, D2 (male Wistar rats; [9]): 5 | Number to reach platform, D2 (male Wistar rats; [9]): 8 | Median time to reach platform, D1 (male Wistar rats; [10]): 61 s | Behavior in pool, D1 (male Wistar rats; [10]): 4 | Number to reach platform, D1 (male Wistar rats; [10]): 6 | Median time to reach platform, D2 (male Wistar rats; [11]): 28 s | Behavior in pool, D2 (male Wistar rats; [11]): 6 | Number to reach platform, D2 (male Wistar rats; [11]): 9 | Percentage inhibition of GABA response at GABAA(α1β2γ2L) [2]: 28±5% | Response when applied alone (agonist effect) at GABAA(α1β2γ2L) [2]: no response alone | Axial expansion (interocular difference) [3]: 0.15±0.15 mm | Myopia (refractive error, interocular difference) [3]: −3.1±2.8 D | Axial expansion reduction [3]: 74% | Myopia reduction [3]: 74% | Overt acute toxicity (male QS mice): No overt acute toxicity | Percentage inhibition of GABA response at GABAB(1b,2) [4]: 35±5% | Response when applied alone (agonist effect) at GABAB(1b,2) [4]: No response

trans-(3-aminocyclopentanyl)methylphosphinic acid [trans-3-ACPMPA]
Mode of antagonism at GABAC receptors (ρ1 GABAC receptors): competitive antagonists | Potency at GABAC relative to GABAA receptors (ρ1 GABAC receptors): greater than 100 times | Potency at GABAC relative to GABAB receptors (ρ1 GABAC receptors): 50 times

CN1[C@@H]2C[C@@H](OC(=O)[C@H](CO)c3ccccc3)C[C@H]1[C@@H]1O[C@@H]12 [scopolamine, reference compound]
Time taken to find the platform (male Wistar rats; 1 mg/kg ip, D1, versus vehicle): statistically significant increase | Behavior score (male Wistar rats; 1 mg/kg ip, Trials 3 and 4 of D1, vehicle 6): 3

CP(=O)(O)[C@H]1CC[C@@H](N)C1 (relative stereo) [cis-3-ACPMPA, cis-(3-aminocyclopentanyl)methylphosphinic acid]
Mode of antagonism at GABAC receptors (ρ1 GABAC receptors): competitive antagonists | Potency at GABAC relative to GABAA receptors (ρ1 GABAC receptors): greater than 100 times | Potency at GABAC relative to GABAB receptors (ρ1 GABAC receptors): 50 times

CCCCP(=O)(O)CCCN [CGP36742, (3-aminopropyl)-n-butylphosphinic acid]
Dose inhibiting a similar degree of lens-induced myopia [5]: 280 nmol

From article PMC2630368 (The Journal of pharmacology and experimental therapeutics, 2008)
